Laboratory results published in patent US6706740B2, “Fungicidal heterocyclic aromatic amides and their compositions, methods of use and preparation” (Dow AgroSciences LLC, priority 1999, dated 2004).
Read-outs that look alike come from different tables or passages of the source.

Key:
[1] = test system: Magnaporthe grisea (Pyricularia oryzae—PYRIOR); assay: microbe, parasite or virus in culture; type: cell-based; settings: Pyricularia oryzae, read-out: PYRIOR in vitro Growth Inhibition
[2] = test system: Rhizoctonia solani (RHIZSO); assay: microbe, parasite or virus in culture; type: cell-based; settings: Rhizoctonia solani, read-out: RHIZSO in vitro Growth Inhibition
[3] = test system: Mycosphaerella graminicola (Septoria tritici—SEPTTR); assay: In vitro fungal growth inhibition, Mycosphaerella graminicola (SEPTTR); type: cell-based; settings: Zymoseptoria tritici, read-out: SEPTTR in vitro Growth Inhibition
[4] = test system: Stagonospora nodorum (Leptosphaeria nodorum—LEPTNO); assay: In vitro fungal growth inhibition, Stagonospora nodorum (LEPTNO); type: cell-based; settings: Leptosphaeria, read-out: LEPTNO in vitro Growth Inhibition
Ustilago maydis (USTIMA) = assay: microbe, parasite or virus in culture; type: cell-based; settings: Mycosarcoma maydis, read-out: USTIMA in vitro Growth Inhibition
[5] = test system: Phytophthora infestans (PHYTIN); assay: microbe, parasite or virus in culture; type: cell-based; settings: Phytophthora infestans, read-out: PHYTIN in vitro Growth Inhibition
[6] = test system: Phytophthora infestans—PHYTIN; assay: whole plant or invertebrate; type: in vivo; settings: Phytophthora, in Solanum lycopersicum, 24 h, read-out: PHYTIN in vivo 1 Day Protectant
[7] = test system: Puccinia recondita—PUCCRT; assay: Brown Rust of Wheat, in vivo whole plant, 24 Hour Protectant
Erysiphe graminis—ERYSGT = assay: Powdery Mildew of Wheat, in vivo whole plant, 24 Hour Protectant
Septoria tritici—SEPTTR = assay: Leaf Blotch of Wheat, in vivo whole plant, 24 Hour Protectant
[8] = test system: Leptosphaeria nodorum—LEPTNO; assay: Glume Blotch of Wheat, in vivo whole plant, 24 Hour Protectant
[9] = Puccinia; 100 ppm spray, 24 hour protectant, wheat; control of fungal infection vs untreated plants; read-out: PUCCRT in vivo 1 Day Protectant
[10] = Erysiphe; 100 ppm spray, 24 hour protectant, wheat; control of fungal infection vs untreated plants; read-out: ERYSGT in vivo 1 Day Protectant
[11] = Zymoseptoria tritici, 24 h, 100 ppm spray, 24 hour protectant, wheat; control of fungal infection vs untreated plants; read-out: SEPTTR in vivo 1 Day Protectant
[12] = Leptosphaeria; 100 ppm spray, 24 hour protectant, wheat; control of fungal infection vs untreated plants; read-out: LEPTNO in vivo 1 Day Protectant
[13] = 100 ppm spray, 24 hour protectant, wheat; control of fungal infection vs untreated plants
[14] = Puccinia; 100 ppm spray, wheat, 24 hour protectant; control of fungal infection vs untreated plants; read-out: PUCCRT in vivo 1 Day Protectant
[15] = Erysiphe; 100 ppm spray, wheat, 24 hour protectant; control of fungal infection vs untreated plants; read-out: ERYSGT in vivo 1 Day Protectant
[16] = Leptosphaeria; 100 ppm spray, wheat, 24 hour protectant; control of fungal infection vs untreated plants; read-out: LEPTNO in vivo 1 Day Protectant

| Structure (SMILES) | inhibition at 25 ppm [1] | inhibition at 25 ppm [2] | inhibition at 25 ppm ([3]; 25 ppm in growth medium) | inhibition at 25 ppm ([4]; 25 ppm in growth medium) | inhibition at 25 ppm (Ustilago maydis (USTIMA)) | inhibition at 25 ppm [5] | pest or weed control at 100 ppm [6] | pest or weed control at 100 ppm [7, 9] | pest or weed control at 100 ppm (Erysiphe graminis—ERYSGT; [10]) | pest or weed control at 100 ppm (Septoria tritici—SEPTTR; [11]) | pest or weed control at 100 ppm [8, 12] | also measured |
| --- | --- | --- | --- | --- | --- | --- | --- | --- | --- | --- | --- | --- |
| COc1ccnc(C(=O)NC2COC(C)C2)c1O (stereo not drawn) [Compound 310] | < 80% | < 80% | < 80% | < 80% | < 80% | < 80% | < 25% | < 25% | 25 to 74% | < 25% | < 25% | – |
| COc1ccnc(C(=O)NC2C[C@H](C)O[C@@](C)(Cc3ccccc3)C2)c1O (stereo partly drawn) [Compound 312] | < 80% | < 80% | < 80% | < 80% | < 80% | < 80% | < 25% | < 25% | 25 to 74% | 25 to 74% | 25 to 74% | – |
| COc1ccnc(C(=O)NC2C[C@H](C)O[C@](C)(Cc3ccccc3)C2)c1O (stereo partly drawn) [Compound 313] | < 80% | < 80% | < 80% | < 80% | < 80% | < 80% | < 25% | 25 to 74% | 25 to 74% | 25 to 74% | 25 to 74% | – |
| CCC1(C)OCC(NC(=O)c2nccc(OC)c2O)CO1 (stereo not drawn) [Compound 314] | < 80% | < 80% | < 80% | < 80% | < 80% | < 80% | < 25% | < 25% | < 25% | < 25% | 25 to 74% | – |
| COc1ccnc(C(=O)NC2COC3(CC(C)(C)CC(C)(C)C3)OC2)c1O [Compound 315] | < 80% | < 80% | < 80% | < 80% | < 80% | < 80% | < 25% | < 25% | < 25% | < 25% | 25 to 74% | – |
| COc1ccnc(C(=O)N[C@H]2CO[C@H](C(C)Cc3ccc(C(C)(C)C)cc3)OC2)c1O (stereo partly drawn) [Compound 316] | > 80% | < 80% | < 80% | > 80% | > 80% | < 80% | < 25% | – | < 25% | < 25% | 25 to 74% | PUCCRT in vivo 1 Day Protectant [7, 13]: + + |
| COc1ccnc(C(=O)N[C@H]2CO[C@@H](C(C)Cc3ccc(C(C)(C)C)cc3)OC2)c1O (stereo partly drawn) [Compound 317] | < 80% | < 80% | < 80% | < 80% | < 80% | < 80% | 25 to 74% | – | < 25% | < 25% | < 25% | PUCCRT in vivo 1 Day Protectant [7, 13]: + + |
| COc1ccnc(C(=O)N[C@H]2CO[C@@](C)(C(C)CC3=C(C)CCCC3(C)C)OC2)c1O (stereo partly drawn) [Compound 318] | < 80% | > 80% | > 80% | > 80% | < 80% | > 80% | 25 to 74% | 25 to 74% | < 25% | 25 to 74% | 25 to 74% | – |
| COc1ccnc(C(=O)N[C@H]2CC3OC2[C@H](C)[C@@H](OCc2ccccc2)[C@H]3C)c1O (stereo partly drawn) [Compound 321] | < 80% | < 80% | < 80% | < 80% | < 80% | < 80% | < 25% | 25 to 74% | < 25% | < 25% | < 25% | – |
| COCCCc1ccc2c(c1)OC(C)C(NC(=O)c1nccc(OC)c1O)C2=O (stereo not drawn) [Compound 322] | < 80% | > 80% | < 80% | > 80% | < 80% | < 80% | < 25% | 25 to 74% | 25 to 74% | 25 to 74% | 25 to 74% | – |
| COc1ccnc(C(=O)NC2C(=O)c3ccc(-c4ccco4)cc3OC2C)c1O (stereo not drawn) [Compound 323] | > 80% | > 80% | > 80% | > 80% | < 80% | < 80% | < 25% | 25 to 74% | < 25% | – | – | SEPTTR in vivo 1 Day Protectant (Septoria tritici—SEPTTR; [13]): + +; LEPTNO in vivo 1 Day Protectant [8, 13]: + + |
| COc1ccnc(C(=O)NC2C3CSC2CN(Cc2ccccc2)C3)c1O (stereo not drawn) [Compound 325] | < 80% | < 80% | < 80% | < 80% | < 80% | < 80% | < 25% | < 25% | < 25% | < 25% | 25 to 74% | – |
| COc1ccnc(C(=O)N[C@@H]2C[C@@H](O[Si](C)(C)C(C)(C)C)O[C@@H](C)[C@@H]2OC)c1O [Compound 326] | < 80% | < 80% | – | – | < 80% | < 80% | < 25% | < 25% | < 25% | – | 25 to 74% | inhibition at 25 ppm [3]: < 80%; inhibition at 25 ppm [4]: < 80%; SEPTTR in vivo 1 Day Protectant (Septoria tritici—SEPTTR; [13]): + + |
| COc1ccnc(C(=O)N[C@@H]2C[C@@H](O[Si](C)(C)C(C)(C)C)O[C@@H](C)[C@@H]2OCc2ccccc2)c1O [Compound 327] | < 80% | < 80% | – | – | < 80% | < 80% | 25 to 74% | – | – | – | – | inhibition at 25 ppm [3]: < 80%; inhibition at 25 ppm [4]: < 80%; pest or weed control at 100 ppm [7, 14]: < 25%; pest or weed control at 100 ppm (Erysiphe graminis—ERYSGT; [15]): < 25%; SEPTTR in vivo 1 Day Protectant (Septoria tritici—SEPTTR; 100 ppm spray, wheat, 24 hour protectant; control of fungal infection vs untreated plants): + +; pest or weed control at 100 ppm [8, 16]: 25 to 74% |
| COc1ccnc(C(=O)N[C@H]2C[C@@H](O[Si](C)(C)C(C)(C)C)O[C@@H](C)[C@@H]2OCc2ccccc2)c1O [Compound 328] | < 80% | < 80% | – | – | < 80% | > 80% | < 25% | – | – | – | – | inhibition at 25 ppm [3]: < 80%; inhibition at 25 ppm [4]: < 80%; pest or weed control at 100 ppm [7, 14]: < 25%; pest or weed control at 100 ppm (Erysiphe graminis—ERYSGT; [15]): < 25%; pest or weed control at 100 ppm (Septoria tritici—SEPTTR; Zymoseptoria tritici, 24 h, 100 ppm spray, wheat, 24 hour protectant; control of fungal infection vs untreated plants; read-out: SEPTTR in vivo 1 Day Protectant): 25 to 74%; pest or weed control at 100 ppm [8, 16]: 25 to 74% |
